Data: ChEMBL document CHEMBL1201862, “PubChem BioAssay data set” (2004)
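Briefly, cells in 96-well plates were exposed to five compound concentrations for 48 h, and endpoints were estimated by linear interpolation. Here, GI50 denotes the concentration required for 50% inhibition of growth.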 Activity calls are given as the source filed them. Cut-off read from the data, not from the text of the source: active = GI50 up to about 1.1 µM and inactive = higher. Where a SMILES comes first, the peptide text is derived from it. Bridges are numbered along the chain shown (N, C = ends). [ ]: non-standard residue; d: D form. The star is where a group is joined. ξ: configuration not given here. PhAc = O=C(Cc1ccccc1)*; ξP = O=C(O)C1CCCN1

Legend:
Test in all cases: growth of human tumour cells (NCI), 48 h
A549 = system: A549
EKVX = system: EKVX
HOP-92 = system: HOP-92
K562 = system: K562
MCF7 = system: MCF7
MDA-N = system: MDA-N
MOLT-4 = system: MOLT-4
NCI-H226 = system: NCI-H226
RPMI-8226 = system: RPMI-8226
RXF 393 = system: RXF 393
SK-MEL-5 = system: SK-MEL-5
SNB-19 = system: SNB-19
SNB-75 = system: SNB-75
T47D = system: T47D
U-251 = system: U-251
UACC-62 = system: UACC-62
UO-31 = system: UO-31
NCI-H522 = system: NCI-H522
SF-539 = system: SF-539
SN12C = system: SN12C

Structure (SMILES) | GI50 (A549) | GI50 (EKVX) | GI50 (HOP-92) | GI50 (K562) | GI50 (MCF7) | GI50 (MDA-N) | GI50 (MOLT-4) | GI50 (NCI-H226) | GI50 (RPMI-8226) | GI50 (RXF 393) | GI50 (SK-MEL-5) | GI50 (SNB-19) | GI50 (SNB-75) | GI50 (T47D) | GI50 (U-251) | GI50 (UACC-62) | GI50 (UO-31) | GI50 (NCI-H522) | GI50 (SF-539) | GI50 (SN12C)
CCOC(=O)c1csc(NC(=O)CN2CCN(C)CC2)n1 | > 100 µM (inactive) | > 100 µM (inactive) | > 100 µM (inactive) | > 100 µM (inactive) | > 100 µM (inactive) | > 100 µM (inactive) | > 100 µM (inactive) | > 100 µM (inactive) | > 100 µM (inactive) | > 100 µM (inactive) | > 100 µM (inactive) | > 100 µM (inactive) | > 100 µM (inactive) | > 100 µM (inactive) | > 100 µM (inactive) | > 100 µM (inactive) | > 100 µM (inactive) | – | – | –
COc1ccc(NC2CC(C)N(C(=O)c3ccccc3)O2)cc1 (configuration not stated) | > 10 µM (inactive) | > 10 µM (inactive) | – | > 10 µM (inactive) | > 10 µM (inactive) | > 10 µM (inactive) | > 10 µM (inactive) | – | > 10 µM (inactive) | > 10 µM (inactive) | > 10 µM (inactive) | > 10 µM (inactive) | > 10 µM (inactive) | > 10 µM (inactive) | – | – | > 10 µM (inactive) | > 10 µM (inactive) | > 10 µM (inactive) | > 10 µM (inactive)
C[N+]1(CC[N+]2(C)CCCC2c2cccnc2)CCCC1c1cccnc1 (configuration not stated) | > 100 µM (inactive) | 18.7 µM (inactive) | > 100 µM (inactive) | 96.4 µM (inactive) | > 100 µM (inactive) | 32.5 µM (inactive) | 2.75 µM (inactive) | – | 97.7 µM (inactive) | > 100 µM (inactive) | > 100 µM (inactive) | > 100 µM (inactive) | > 100 µM (inactive) | 42.4 µM (inactive) | 60 µM (inactive) | > 100 µM (inactive) | > 100 µM (inactive) | > 100 µM (inactive) | > 100 µM (inactive) | > 100 µM (inactive)
Cc1cn([C@@H]2O[C@H](CO[Si](C)(C)C(C)(C)C)[C@]3(O[C@H]3C(=O)NN)[C@H]2O[Si](C)(C)C(C)(C)C)c(=O)[nH]c1=O | 6.03 µM (inactive) | 8.61 µM (inactive) | 6.24 µM (inactive) | 2.75 µM (inactive) | 4.26 µM (inactive) | 5.78 µM (inactive) | 2.04 µM (inactive) | 12 µM (inactive) | 4.29 µM (inactive) | – | 10.4 µM (inactive) | 7.66 µM (inactive) | 7.98 µM (inactive) | 2.36 µM (inactive) | 4.23 µM (inactive) | 10.6 µM (inactive) | 14.2 µM (inactive) | 2.2 µM (inactive) | 4.75 µM (inactive) | 5.79 µM (inactive)
C[C@]12CCC(O)CC1=CC[C@@H]1[C@@H]2CC[C@]2(C)C(O)[C@H](n3ccnc3)C[C@@H]12 (some centres not stated) | 81.7 µM (inactive) | > 100 µM (inactive) | 20.2 µM (inactive) | 12 µM (inactive) | 51.4 µM (inactive) | 79.3 µM (inactive) | 17.4 µM (inactive) | > 100 µM (inactive) | 22.4 µM (inactive) | 55.1 µM (inactive) | 28.1 µM (inactive) | 90.4 µM (inactive) | > 100 µM (inactive) | – | 52 µM (inactive) | 77.1 µM (inactive) | > 100 µM (inactive) | 58.6 µM (inactive) | 64.1 µM (inactive) | > 100 µM (inactive)
C[C@]12C=CC(=O)C=C1CC[C@@H]1[C@@H]2CC[C@@]2(C)[C@H]1CC[C@]2(O)C(N)=O | > 100 µM (inactive) | > 100 µM (inactive) | > 100 µM (inactive) | > 100 µM (inactive) | – | > 100 µM (inactive) | > 100 µM (inactive) | > 100 µM (inactive) | > 100 µM (inactive) | > 100 µM (inactive) | > 100 µM (inactive) | > 100 µM (inactive) | > 100 µM (inactive) | > 100 µM (inactive) | > 100 µM (inactive) | > 100 µM (inactive) | > 100 µM (inactive) | > 100 µM (inactive) | > 100 µM (inactive) | > 100 µM (inactive)
COc1ccc(N2C(=O)C3c4[nH]c5ccccc5c4C4CCCCCCCCCC4C3C2=O)cc1 (configuration not stated) | > 10 µM (inactive) | > 10 µM (inactive) | – | > 10 µM (inactive) | > 10 µM (inactive) | > 10 µM (inactive) | > 10 µM (inactive) | > 10 µM (inactive) | > 10 µM (inactive) | > 10 µM (inactive) | > 10 µM (inactive) | > 10 µM (inactive) | > 10 µM (inactive) | > 10 µM (inactive) | > 10 µM (inactive) | > 10 µM (inactive) | > 10 µM (inactive) | > 10 µM (inactive) | 7.28 µM (inactive) | > 10 µM (inactive)
CC(NC(=O)OC(C)(C)C)C(=O)C(N)=O (configuration not stated) | > 100 µM (inactive) | > 100 µM (inactive) | > 100 µM (inactive) | > 100 µM (inactive) | > 100 µM (inactive) | > 100 µM (inactive) | > 100 µM (inactive) | > 100 µM (inactive) | > 100 µM (inactive) | – | > 100 µM (inactive) | > 100 µM (inactive) | > 100 µM (inactive) | > 100 µM (inactive) | > 100 µM (inactive) | – | > 100 µM (inactive) | – | > 100 µM (inactive) | > 100 µM (inactive)
Cn1c(NN)nc(-c2ccc([N+](=O)[O-])cc2)c(C#N)c1=O | 19.8 µM (inactive) | 15.8 µM (inactive) | – | 38.2 µM (inactive) | 16.6 µM (inactive) | 12.4 µM (inactive) | – | 11 µM (inactive) | 29.1 µM (inactive) | 14.9 µM (inactive) | 4.25 µM (inactive) | 13.5 µM (inactive) | 20.4 µM (inactive) | 15.8 µM (inactive) | 17.1 µM (inactive) | 15.6 µM (inactive) | 16.3 µM (inactive) | 16.4 µM (inactive) | – | 15.6 µM (inactive)
COc1cc2c(cc1OC)C1Cc3ccccc3CCN1CC2 (configuration not stated) | > 100 µM (inactive) | > 100 µM (inactive) | 36.1 µM (inactive) | 62.1 µM (inactive) | > 100 µM (inactive) | > 100 µM (inactive) | 35.1 µM (inactive) | 60.4 µM (inactive) | > 100 µM (inactive) | – | 58.1 µM (inactive) | > 100 µM (inactive) | 68.5 µM (inactive) | > 100 µM (inactive) | > 100 µM (inactive) | > 100 µM (inactive) | 27.2 µM (inactive) | > 100 µM (inactive) | > 100 µM (inactive) | > 100 µM (inactive)
CC1=CC(=O)C(=CN2C(=O)/C(=C\c3cccnc3)NC2=S)C(=O)O1 | > 100 µM (inactive) | > 100 µM (inactive) | > 100 µM (inactive) | – | > 100 µM (inactive) | > 100 µM (inactive) | > 100 µM (inactive) | > 100 µM (inactive) | – | – | > 100 µM (inactive) | > 100 µM (inactive) | > 100 µM (inactive) | > 100 µM (inactive) | > 100 µM (inactive) | – | > 100 µM (inactive) | – | > 100 µM (inactive) | > 100 µM (inactive)
C(=N\c1cc2cc(Sc3ccccc3)ccc2[nH]1)/c1ccccc1 | 0.0818 µM (active) | > 12.5 µM (inactive) | > 12.5 µM (inactive) | 11 µM (inactive) | > 12.5 µM (inactive) | 4.91 µM (inactive) | > 12.5 µM (inactive) | – | > 12.5 µM (inactive) | > 12.5 µM (inactive) | 10.6 µM (inactive) | > 12.5 µM (inactive) | > 12.5 µM (inactive) | > 12.5 µM (inactive) | – | 7.11 µM (inactive) | – | > 12.5 µM (inactive) | 0.741 µM (active) | > 12.5 µM (inactive)
COc1cc(/C=N/n2c(Cc3ccc(Cl)cc3)n[nH]c2=O)cc(OC)c1OC | > 100 µM (inactive) | > 100 µM (inactive) | – | > 100 µM (inactive) | > 100 µM (inactive) | > 100 µM (inactive) | > 100 µM (inactive) | > 100 µM (inactive) | – | > 100 µM (inactive) | – | > 100 µM (inactive) | 65.2 µM (inactive) | > 100 µM (inactive) | > 100 µM (inactive) | > 100 µM (inactive) | > 100 µM (inactive) | – | 44.8 µM (inactive) | > 100 µM (inactive)
OC1(c2ccc3ccccc3c2)c2ccc3ccccc3c2C2=NCCN21 (configuration not stated) | 46.5 µM (inactive) | > 100 µM (inactive) | > 100 µM (inactive) | 45 µM (inactive) | 48.2 µM (inactive) | > 100 µM (inactive) | > 100 µM (inactive) | – | > 100 µM (inactive) | 29.4 µM (inactive) | > 100 µM (inactive) | 66.8 µM (inactive) | 24.9 µM (inactive) | > 100 µM (inactive) | 45.7 µM (inactive) | > 100 µM (inactive) | 40.9 µM (inactive) | – | 19.5 µM (inactive) | > 100 µM (inactive)
O=C(Cc1ccccc1)N[C@@H]1COC(=O)C2CCCN2C(=O)[C@@H]2CCCN2C1=O (some centres not stated) (PhAc-[dS]-Pro-[ξP]; ester 1-C) | > 100 µM (inactive) | > 100 µM (inactive) | > 100 µM (inactive) | – | > 100 µM (inactive) | > 100 µM (inactive) | > 100 µM (inactive) | > 100 µM (inactive) | – | > 100 µM (inactive) | > 100 µM (inactive) | > 100 µM (inactive) | < 0.01 µM (active) | > 100 µM (inactive) | – | > 100 µM (inactive) | – | – | > 100 µM (inactive) | > 100 µM (inactive)
